# Legend:
# [1] = test system: caspase 3/7 catalytic activity in N1-S1 cells; assay: Caspase 3/7 catalytic activity in N1-S1 cells (Caspase-Glo); assay type: cell-based, rat
# Method: In some embodiments, bar graph 402 represents the percentage change in caspase 3/7 catalytic activity after four (4) hours of incubation with 0.3 μM 17-AAG followed by the application of a single 600 ns pulse at different electric field intensities (from 0 to about 60 kV/cm). In these embodiments, bar graph 432 represents the percentage change in […] after 16 hours of incubation with 0.3 μM 17-AAG followed by the application of a single 600 ns pulse at different electric field intensities (from 0 to about 60 kV/cm).
# In some embodiments, N1-S1 cells were incubated with or without 17-AAG for 4 hours or 16 hours to determine a synergistic activation of caspase 3/7 with 17-AAG and nsPEFs. In these embodiments, after the incubation period, N1-S1 cells were then treated with nsPEFs with increasing electric fields (one 600 ns pulse) and assayed for caspase 3/7 catalytic activity two (2) hours after pulsing. In an example, caspase 3/7 catalytic activity is measured employing Caspase-Glo (available from Promega, Madison, Wis.) 2 hours after pulsing.
# N1-S1 rat HCC cells = assay: Cell viability of N1-S1 rat HCC cells (CellTiter-Glo) after Hsp90 inhibitor and/or nsPEF; assay type: cell-based
# Method: In some embodiments, N1-S1 rat HCC cells are exposed to an inhibitor of Hsp90 and then exposed to nsPEFs to cause cell death. In these embodiments, using the aforementioned methodology the cells mortality is greater than when either Hsp90 inhibitor or nsPEFs are employed alone. In an example, N1-S1 rat HCC cells are treated with 0.3 μM 17-AAG and incubated for 24 hours. In this example, after the 24 hours incubation period, the N1-S1 rat HCC cells are treated with a single 600 ns pulse with increasing electric field intensities (from about 10 kV/cm to about 60 kV/cm). Further to this example, cell viability is determined employing CellTiter-Glo (available from Promega, Madison, Wis.) 24 hours after pulsing.
# In an example, mitochondria membrane potential (ΔΨm) and Ca^2+ influx are determined by employing Tetramethylrhodamine, ethyl ester (TMRE) Assay Kit and green-fluorescent calcium indicator, Fluo-4, respectively, 10 minutes after pulsing. In this example, cell viability is determined employing CellTiter-Glo (available from Promega, Madison, Wis.) 24 hours after pulsing.
# In some embodiments, bar 502 illustrates the percentage of cell viability for a control sample where none of the treatments are employed. In these embodiments, bar 504 illustrates the percentage of cell viability when employing an Hsp90 inhibitor at a concentration of 0.3 μM (e.g., 17-AAG) without nsPEFs. Further to these embodiments, bar 506 illustrates the percentage of cell viability when employing only a single 600 nsPEF of 60 kV/cm. Still further to these embodiments, bar 508 illustrates the percentage of cell viability when employing both treatments (0.3 μM 17-AAG and single 600 ns pulse of 60 kV/cm). In an example, N1-S1 HCC cells are employed for the cell viability test.
# cleaved caspase 3 = assay: Western blot for cleaved caspase 3 relative to β-actin (LI-COR Odyssey CLx); assay type: cell-based
# From the text: FIG. 7 is a graphical representation illustrating western blot test results for cleaved caspase 3 when employing an Hsp90 inhibitor at different concentrations, according to an embodiment. In FIG. 7, western blot test results 700 include stained bands 702 and cleaved caspase 3 fold change graph 708. In FIG. 7, stained bands 702 include cleaved caspase 3 bands 704 and β-actin bands 706. In FIG. 7, cleaved caspase 3 fold change graph 708 includes bars 710, 712, and 714. In an example, the western blot data is quantified using a LI-COR Odyssey CLx imaging system. In FIG. 7, stained bands 702 is a photographic representation depicting an expression of cleaved caspase 3 as a function of concentration of an Hsp90 inhibitor (e.g., AUY922). In FIG. 7, cleaved caspase 3 fold change graph 708 is a graphical representation illustrating fold changes of caspase 3 with respect to β-actin. FIG. 8 is a graphical representation illustrating western blot test results for cleaved caspase 3 when employing an Hsp90 inhibitor alone, nsPEF alone, or a combination of both treatments, according to an embodiment. In FIG. 8, western blot test results 800 include stained bands 802 and caspase 3 fold change graph 808. In FIG. 8, stained bands 802 include cleaved caspase 3 bands 804, β-actin bands 806, and caspase expression 807. In FIG. 8, caspase 3-fold change graph 808 includes bars 810, 812, and 814. In an example, the western blot data is quantified using LI-COR Odyssey CLx imaging system. In some embodiments, stained bands 802 is a photographic representation depicting an expression of cleaved caspase 3 as a function of the treatment employed. In these embodiments, caspase 3 fold change graph 808 is a graphical representation illustrating fold changes of caspase 3 with respect to β-actin.
Structure (SMILES),"effect of 17-AAG on the nsPEF-induced modest change in catalytic activity ([1]; 0.3 μM 17-AAG 4 h, then 600 ns pulse at higher electric fields 50-60 kV/cm (bars 428, 430))","effect of 17-AAG on the nsPEF-induced modest change in caspase activity ([1]; 0.3 μM 17-AAG 4 h, then 600 ns pulse at lower electric fields 10-40 kV/cm (bars 420-426))","change in caspase 3/7 activity ([1]; 0.3 μM 17-AAG alone, 4 hours of incubation (bar 418, FIG. 4))","change in caspase 3/7 activity ([1]; 0.3 μM 17-AAG, 16 h of incubation, unaffected by nsPEFs (FIG. 4))",synergistic effects on caspase 3/7 activity of 17-AAG together with nsPEFs ([1]; the two treatments included together),"cell viability reduction (N1-S1 rat HCC cells; 0.3 μM 17-AAG alone, 24 h incubation, no nsPEF (bar 116, FIG. 1), viability 24 h after pulsing time)","additional increase in the reduction of cell viability (N1-S1 rat HCC cells; 0.3 μM 17-AAG plus nsPEF at about 50 kV/cm (bar 610, FIG. 6))","percentage of cell viability (N1-S1 rat HCC cells; 0.3 μM 17-AAG plus single 600 ns pulse of 60 kV (bar 508, FIG. 5))","cells killed (N1-S1 rat HCC cells; cells pre-treated with 0.3 μM 17-AAG, then single 600 ns pulse of 50 kV/cm) [%]","ratio of caspase 3 to β-actin (fold change) (cleaved caspase 3; 1 μM AUY922, no nsPEF (bar 712, FIG. 7), no AUY922 about 1)","ratio of caspase 3 to β-actin (fold change) (cleaved caspase 3; 1 μM AUY922 alone (bar 814, FIG. 8))","ratio of caspase 3 to β-actin (fold change) (cleaved caspase 3; 1 μM AUY922 plus nsPEF of 600 ns at 20 kV/cm (bar 812, FIG. 8))","ratio of caspase 3 to β-actin (fold change) (cleaved caspase 3; 10 μM AUY922, no nsPEF (bar 714, FIG. 7), no AUY922 about 1)"
C=CCNC1=C2C[C@@H](C)C[C@H](OC)[C@H](O)[C@@H](C)/C=C(\C)[C@H](OC(N)=O)[C@@H](OC)/C=C\C=C(/C)C(=O)NC(=CC1=O)C2=O [17-AAG],no effect,no effect,no significant change,significant increases,no synergistic effects,about 25%,about 45%,about 17%,80,,,,
CCNC(=O)c1noc(-c2cc(C(C)C)c(O)cc2O)c1-c1ccc(CN2CCOCC2)cc1 [AUY922],,,,,,,,,,about 2,~3,about 7,about 7

# — US20180110978A1, “SYNERGISTIC REGULATED CELL DEATH INDUCTION WITH HSP90 INHIBITORS AND NANOSECOND PULSED ELECTRIC FIELDS” (Old Dominion University Research Foundation, priority 2015, published 2018)
